Measurements reported in the NIST ThermoML archive (doi:10.1021/je400250u).

Experiments:
[1] = refractive index (Na D-line) (dimensionless); xn = mol fraction of the nth substance listed; settings: 100 kPa, Liquid, Standard Abbe refractometry
[2] = xn = mol fraction of the nth substance listed; settings: 100 kPa, Liquid; for viscosity: Capillary tube (Ostwald / Ubbelohde) method; for mass density: Vibrating tube method

C1CC[C@H]2CCCC[C@H]2C1 [cis-decahydronaphthalene] + CCCCCCCCCCC
Settings	mass density, [2] [kg/m3]	refractive index, [1]	viscosity, [2] [mPa·s]
293.15 K, x1 = 0.1086	753.22	–	1.24
293.15 K, x1 = 0.2072	765.62	–	1.31
293.15 K, x1 = 0.3066	778.83	–	1.415
293.15 K, x1 = 0.4031	792.39	–	1.542
293.15 K, x1 = 0.5028	807.23	–	1.69
293.15 K, x1 = 0.5976	822.17	–	1.829
293.15 K, x1 = 0.6835	836.42	–	2.021
293.15 K, x1 = 0.7983	856.82	–	2.368
293.15 K, x1 = 0.8954	875.37	–	2.726
293.15 K, x1 = 1	896.85	–	3.355
298.15 K, x1 = 0.1086	749.55	1.4192	1.148
298.15 K, x1 = 0.2072	761.95	1.4242	1.208
298.15 K, x1 = 0.3066	775.16	1.4294	1.3
298.15 K, x1 = 0.4031	788.74	–	1.415
298.15 K, x1 = 0.4075	–	1.4352	–
298.15 K, x1 = 0.5028	803.55	–	1.554
298.15 K, x1 = 0.5059	–	1.4411	–
298.15 K, x1 = 0.592	–	1.4469	–
298.15 K, x1 = 0.5976	818.48	–	1.67
298.15 K, x1 = 0.6835	832.71	1.4532	1.84
298.15 K, x1 = 0.7983	853.1	1.4609	2.139
298.15 K, x1 = 0.8954	871.62	1.4686	2.458
298.15 K, x1 = 1	893.06	1.4776	3.011
303.15 K, x1 = 0.1086	745.85	–	1.062
303.15 K, x1 = 0.2072	758.26	–	1.112
303.15 K, x1 = 0.3066	771.47	–	1.201
303.15 K, x1 = 0.4031	785.05	–	1.326
303.15 K, x1 = 0.5028	799.85	–	1.424
303.15 K, x1 = 0.5976	814.77	–	1.53
303.15 K, x1 = 0.6835	828.99	–	1.682
303.15 K, x1 = 0.7983	849.36	–	1.949
303.15 K, x1 = 0.8954	867.86	–	2.233
303.15 K, x1 = 1	889.26	–	2.718
308.15 K, x1 = 0.1086	742.15	1.4151	0.977
308.15 K, x1 = 0.2072	754.56	1.4198	1.034
308.15 K, x1 = 0.3066	767.77	1.4251	1.111
308.15 K, x1 = 0.4031	781.35	–	1.215
308.15 K, x1 = 0.4075	–	1.431	–
308.15 K, x1 = 0.5028	796.14	–	1.307
308.15 K, x1 = 0.5059	–	1.4366	–
308.15 K, x1 = 0.592	–	1.4426	–
308.15 K, x1 = 0.5976	811.05	–	1.41
308.15 K, x1 = 0.6835	825.27	1.4487	1.546
308.15 K, x1 = 0.7983	845.62	1.4565	1.818
308.15 K, x1 = 0.8954	864.1	1.464	2.035
308.15 K, x1 = 1	885.46	1.4736	2.47
313.15 K, x1 = 0.1086	738.44	–	0.903
313.15 K, x1 = 0.2072	750.84	–	0.962
313.15 K, x1 = 0.3066	764.05	–	1.034
313.15 K, x1 = 0.4031	777.64	–	1.115
313.15 K, x1 = 0.5028	792.42	–	1.204
313.15 K, x1 = 0.5976	807.33	–	1.303
313.15 K, x1 = 0.6835	821.53	–	1.426
313.15 K, x1 = 0.7983	841.87	–	1.673
313.15 K, x1 = 0.8954	860.33	–	1.859
313.15 K, x1 = 1	881.65	–	2.252
318.15 K, x1 = 0.1086	734.71	1.4114	0.843
318.15 K, x1 = 0.2072	747.12	1.416	0.899
318.15 K, x1 = 0.3066	760.33	1.4213	0.964
318.15 K, x1 = 0.4031	773.91	–	1.038
318.15 K, x1 = 0.4075	–	1.4275	–
318.15 K, x1 = 0.5028	788.7	–	1.119
318.15 K, x1 = 0.5059	–	1.4331	–
318.15 K, x1 = 0.592	–	1.4383	–
318.15 K, x1 = 0.5976	803.6	–	1.209
318.15 K, x1 = 0.6835	817.79	1.4448	1.319
318.15 K, x1 = 0.7983	838.11	1.4536	1.505
318.15 K, x1 = 0.8954	856.55	1.4612	1.71
318.15 K, x1 = 1	877.85	1.4696	2.063
323.15 K, x1 = 0.1086	730.98	–	0.786
323.15 K, x1 = 0.2072	743.39	–	0.841
323.15 K, x1 = 0.3066	756.6	–	0.9
323.15 K, x1 = 0.4031	770.18	–	0.97
323.15 K, x1 = 0.5028	784.96	–	1.043
323.15 K, x1 = 0.5976	799.86	–	1.124
323.15 K, x1 = 0.6835	814.05	–	1.225
323.15 K, x1 = 0.7983	834.35	–	1.392
323.15 K, x1 = 0.8954	852.77	–	1.577
323.15 K, x1 = 1	874.05	–	1.898

C1CC[C@H]2CCCC[C@@H]2C1 [trans-decahydronaphthalene] + CCCCCCCCC
Settings	mass density, [2] [kg/m3]	refractive index, [1]	viscosity, [2] [mPa·s]
293.15 K, x1 = 0.1036	732.72	–	0.772
293.15 K, x1 = 0.2018	746.84	–	0.836
293.15 K, x1 = 0.3016	761.45	–	0.912
293.15 K, x1 = 0.4042	776.68	–	1.004
293.15 K, x1 = 0.4954	790.42	–	1.109
293.15 K, x1 = 0.6009	806.55	–	1.253
293.15 K, x1 = 0.6984	821.69	–	1.409
293.15 K, x1 = 0.8001	837.66	–	1.635
293.15 K, x1 = 0.8933	852.53	–	1.864
293.15 K, x1 = 1	869.78	–	2.112
298.15 K, x1 = 0.1036	728.87	1.4084	0.725
298.15 K, x1 = 0.2018	743	1.4146	0.781
298.15 K, x1 = 0.3016	757.63	1.4205	0.849
298.15 K, x1 = 0.4042	772.88	1.4273	0.934
298.15 K, x1 = 0.4954	786.63	1.4326	1.028
298.15 K, x1 = 0.6009	802.78	1.4397	1.154
298.15 K, x1 = 0.6984	817.94	1.4459	1.305
298.15 K, x1 = 0.8001	833.93	1.4526	1.505
298.15 K, x1 = 0.8933	848.8	1.4591	1.701
298.15 K, x1 = 1	866.07	1.4662	1.925
303.15 K, x1 = 0.1036	724.99	–	0.681
303.15 K, x1 = 0.2018	739.14	–	0.732
303.15 K, x1 = 0.3016	753.79	–	0.795
303.15 K, x1 = 0.4042	769.06	–	0.871
303.15 K, x1 = 0.4954	782.83	–	0.957
303.15 K, x1 = 0.6009	798.99	–	1.075
303.15 K, x1 = 0.6984	814.17	–	1.213
303.15 K, x1 = 0.8001	830.18	–	1.393
303.15 K, x1 = 0.8933	845.07	–	1.568
303.15 K, x1 = 1	862.34	–	1.769
308.15 K, x1 = 0.1036	721.09	1.4038	0.642
308.15 K, x1 = 0.2018	735.26	1.4105	0.688
308.15 K, x1 = 0.3016	749.94	1.4163	0.746
308.15 K, x1 = 0.4042	765.23	1.423	0.816
308.15 K, x1 = 0.4954	779.01	1.4286	0.893
308.15 K, x1 = 0.6009	795.19	1.435	0.998
308.15 K, x1 = 0.6984	810.39	1.4418	1.127
308.15 K, x1 = 0.8001	826.41	1.4486	1.29
308.15 K, x1 = 0.8933	841.33	1.455	1.447
308.15 K, x1 = 1	858.61	1.4618	1.628
313.15 K, x1 = 0.1036	717.18	–	0.607
313.15 K, x1 = 0.2018	731.37	–	0.65
313.15 K, x1 = 0.3016	746.07	–	0.704
313.15 K, x1 = 0.4042	761.38	–	0.766
313.15 K, x1 = 0.4954	775.18	–	0.838
313.15 K, x1 = 0.6009	791.38	–	0.929
313.15 K, x1 = 0.6984	806.6	–	1.052
313.15 K, x1 = 0.8001	822.64	–	1.202
313.15 K, x1 = 0.8933	837.57	–	1.334
313.15 K, x1 = 1	854.88	–	1.505
318.15 K, x1 = 0.1036	713.25	1.3993	0.576
318.15 K, x1 = 0.2018	727.46	1.406	0.614
318.15 K, x1 = 0.3016	742.18	1.4122	0.663
318.15 K, x1 = 0.4042	757.52	1.4187	0.723
318.15 K, x1 = 0.4954	771.34	1.4249	0.786
318.15 K, x1 = 0.6009	787.56	1.4312	0.869
318.15 K, x1 = 0.6984	802.8	1.4379	0.984
318.15 K, x1 = 0.8001	818.86	1.4445	1.118
318.15 K, x1 = 0.8933	833.81	1.4509	1.241
318.15 K, x1 = 1	851.14	1.4581	1.394
323.15 K, x1 = 0.1036	709.3	–	0.547
323.15 K, x1 = 0.2018	723.54	–	0.583
323.15 K, x1 = 0.3016	738.28	–	0.627
323.15 K, x1 = 0.4042	753.64	–	0.682
323.15 K, x1 = 0.4954	767.48	–	0.742
323.15 K, x1 = 0.6009	783.73	–	0.821
323.15 K, x1 = 0.6984	798.99	–	0.922
323.15 K, x1 = 0.8001	815.08	–	1.041
323.15 K, x1 = 0.8933	830.05	–	1.156
323.15 K, x1 = 1	847.4	–	1.295
